Test results: patent US20150152122A1, “TYROSINASE INHIBITORS” (Avon Products, Inc., priority 2013, published 2015)

How the values were obtained:
[1] = tested on: Mushroom tyrosinase; experiment: Mushroom tyrosinase assay; format: biochemical; settings: percent change vs DMSO vehicle, L-Tyrosine substrate, 25° C., 30 min
Method: Mushroom tyrosinase and L-Tyrosine were obtained from Sigma-Aldrich, Inc. (St. Louis, Mo.). The enzyme activity was measured in buffer containing 100 mM phosphate buffer pH 6.8, 5% absolute ethanol, 2 micrograms/milliiliter mushroom tyrosinase, and 0.2 mg/ml L-Tyrosine. The reaction (conversion of L-Tyrosine to DOPAchrome) was conducted in triplicates at 25° C. for 30 min, and absorbance was then measured at 492 nm. Kojic Acid was used as a positive control inhibitor in these assays. Percent change in tyrosinase activity relative to vehicle control was calculated.

[2] = tested on: B16 mouse melanoma cells; experiment: Inhibition of melanin production in B16 melanoma cell assay; format: cell-based; settings: 4 days, normalized to cell viability (MTT), alpha MSH 2 ng/ml
Method: The effects of various test compounds on melanin levels were determined by performing assays using B16 melanoma cells. These cells are known to constitutively produce melanin and are a commonly utilized and accepted model system for monitoring the inhibition of melanin synthesis. The B16 mouse melanoma cells were seeded (ATCC, cat. #: CRL-6475) into 96-well tissue culture-treated plates (BD Falcon) and treated with test actives or controls in phenol red free DMEM (Mediatech; cat. #: 17-205-CV) with 2 nanogram/ml of alpha MSH (Fluka; cat #: 63605). The cells were examined for their ability to modulate pigment formation. […] Tests were performed in 6 replicates each. Following the treatment period (4 days), the level of pigment produced or melanin synthesized was quantified by reading the absorbance at 540 nm using a standard microplate reader (Tecan Group Ltd.).
After quantifying the amount of melanin, cell viability was determined using the MTT conversion method. The MTT conversion method measures the reduction of the MTT dye from a yellow colored, water-soluble, tetrazolium salt to a bluish-purple colored insoluble formazan precipitate by NAD(P)H-dependent microsomal dehydrogenase enzymes, which only function in viable cells. The intensity of the blue color is indicative of cell viability. After quantifying the amount of melanin pigment produced, the cells were exposed to MTT dye solution (1 mg/ml) for two to three hours. Formazan material was solubilized with reagent alcohol (95% ethanol: 5% isopropanol) and shaken on an orbital shaker for 15-30 minutes. MTT dye uptake and conversion by viable cells were determined by measuring the extracted formazan at 570 nm using a microplate reader. Total pigmentation was calculated, normalized to cell viability values and expressed as the average percent change in melanin activity relative to control of the six experiments performed.

[3] = tested on: human skin explants; experiment: Melanin production in human skin explants; format: cell-based; settings: human skin explant
Method: The effects of test compound AV7909 on melanin levels in human skin explants were determined relative to a DMSO control and Kojic Acid benchmark.

[4] = tested on: MELANODERM (MEL-300-B) human skin model; experiment: 3D skin equivalent tissue pigmentation assay (MELANODERM); format: cell-based; settings: topical 10 μl, Day 11
Method: The effect of the tyrosinase inhibitors on melanin levels was investigated using a MELANODERM™ (MEL-300-B, MatTek Corp., Ashland, Mass.) human skin model. MELANODERM™ is a viable reconstituted three-dimensional human skin equivalent containing melanocytes derived from African-American donors. Tissues were maintained in culture medium EPI-100-NMM-113 at 37° C. as recommended by the manufacturer.
The compounds were dissolved in either 69% propylene glycol+30% EtOH+1% DMSO or 70% propylene glycol+30% EtOH desired concentration (w/v). 10 μl of the solution was applied topically to the MELANODERMTM tissue while culture medium was added on days 1, 2, 4, 7, and 9. Control tissues were treated with the 10 μl of corresponding vehicle only. On Day 11, tissues were collected and homogenized in a buffer containing 1% SDS, 50 mM EDTA, and 10 mM Tris, pH 6.8. To each homogenate, protease K (5 mg/ml) was added and incubated overnight at 45° C. Additional protease K was added and incubated for 4 hours at 45° C., followed by the addition of 0.5M sodium carbonate and 30% H2O2 and incubation at 80° C. for 30 minutes. The samples were cooled down to room temperature, and extracted with chloroform/methanol (2:1). After centrifugation at 10,000 g for 10 minutes, absorbance of the top phase was measured at 450 nm. Percent change in melanin levels in treated tissue was calculated relative to control. The average percent change in melanin relative to control of the three tissues is reported in the Table 5 in accordance with the scale: 0: <7% decrease in pigmentation level; +: between 8-14% decrease; ++: between 15-20% decrease; +++: between 21-30% decrease; ++++: >31% decrease; C=cytotoxic

[5] = tested on: Human Epidermal Melanocytes, neonatal, darkly pigmented donor (HEMn-DP); experiment: Human Primary Melanocyte Pigmentation Assay (HEMn-DP); format: cell-based; settings: 5 days, normalized to cell viability
Method: The effects of various test compounds on melanin productions were determined by performing assays using Human Epidermal Melanocytes, neonatal, darkly pigmented donor (HEMn-DP). The HEMn-DP cells were seeded (Invitrogen; cat. #: C-202-5C) into 6-well tissue culture-treated plates (BD Falcon) and treated with test actives or controls in Medium 254 (Invitrogen; cat. #: M-254-500) supplemented with 1% HMSG (Invitrogen; cat. #: S-002-5) and 1% PS. The cells were examined for their ability to modulate pigment formation. […] Tests were performed in triplicates each. Following the treatment period (5 days), supernatants were aspirated. The melanin was extracted with 0.5 ml of 2N NaOH for 30 minutes at 80° C. The level of melanin synthesized within the cells was quantified by reading the absorbance at 405 nm using a standard microplate reader (Tecan Group Ltd.).
The cell viability was determined using the MTT conversion method. The MTT conversion method measures the reduction of the MTT dye from a yellow colored, water-soluble, tetrazolium salt to a bluish-purple colored insoluble formazan precipitate by NAD(P)H-dependent microsomal dehydrogenase enzymes, which only function in viable cells. […] MTT dye uptake and conversion by viable cells were determined by measuring the extracted formazan at 570 nm using a microplate reader. Total pigmentation was calculated and normalized to cell viability values. […]

SMILES	Tyrosinase Activity relative to Vehicle Control ([1]; concentration 0.0010%) [%]	Tyrosinase Activity relative to Vehicle Control ([1]; concentration 0.0100%) [%]	B16 Assay Percent Change Melanin Compared to Vehicle ([2]; concentration 0.0001%) [%]	B16 Assay Percent Change Melanin Compared to Vehicle ([2]; concentration 0.0010%) [%]	Pigment Production (percent change in melanin compared to DMSO vehicle control) ([3]; concentration 0.1%) [%]	Pigment Production (percent change in melanin compared to DMSO vehicle control) ([3]; concentration 0.5%) [%]	3D Tissue Pigmentation Assay (change in melanin compared to vehicle control) ([4]; concentration 0.1% (w/v))	3D Tissue Pigmentation Assay (change in melanin compared to vehicle control) ([4]; concentration 0.25% (w/v))	3D Tissue Pigmentation Assay (change in melanin compared to vehicle control) ([4]; concentration 0.5% (w/v))	HUMAN PRIMARY MELANOCYTE PIGMENTATION ASSAY (change in melanin compared to DMSO vehicle control) ([5]; concentration 0.0001%)	HUMAN PRIMARY MELANOCYTE PIGMENTATION ASSAY (change in melanin compared to DMSO vehicle control) ([5]; concentration 0.001%)	3D Tissue Pigmentation Assay (change in melanin compared to vehicle control) ([4]; concentration 0.05% (w/v))
S=c1[nH]nc(-c2ccc3c(c2)OCO3)o1 [AV5828]	−48	−77	−13	−30	–	–	–	–	–	–	–	–
CC(C)c1nc(=S)[nH]n1-c1ccccc1 [AV1973]	–	−81	−17	−60	–	–	–	–	–	–	–	–
Cc1cc(C)n(-c2ccc(=S)[nH]n2)n1 [AV7909]	−82	−70	−17	−79	−17	−28	++ (between 15-20% decrease)	+++ (between 21-30% decrease)	++++ (>31% decrease)	–	–	–
Sc1nnc2sc3ccccc3n12 [AV0442]	−73	−49	–	−19	–	–	–	–	–	–	–	–
S=c1nc(-c2cccs2)cn[nH]1 [AV4926]	−75	−53	–	−49	–	–	–	–	–	–	–	–
Cn1c2ccccc2n2c(=S)[nH]nc12 [AV7533]	−74	−70	−31	−63	–	–	+ (between 8-14% decrease)	++ (between 15-20% decrease)	–	0 (<10% decrease in pigmentation level)	++ (between 31-50% decrease)	+ (between 8-14% decrease)
O=c1cc(CO)occ1O [Kojic Acid, Kojic acid (5-hydroxy-4-pyran-4-one-2-methyl), reference compound]	–	–	–	–	−23	–	–	–	–	–	–	–
